Results reported in patent US20220259212A1, “INHIBITORS OF INDOLEAMINE 2,3-DIOXYGENASE AND/OR TRYPTOPHAN 2,3-DIOXYGENASE” (Idorsia Pharmaceuticals Ltd, priority 2019, published 2022).

Key:
[1] = target: T1, Recombinant human TDO comprising amino acids 19-407 (Homo sapiens, UniProt P48775); assay: TDO2 enzymatic assay (NFK quantified by LCMS); format: biochemical; conditions: 15 nM enzyme, 200 μM L-tryptophan, 30 min pre-incubation, pH7; mean if measured multiple times; read-out: hTDO activity (IC50 in nM)
T1 construct: human TDO comprising amino acids 19-407; hexahistidine (N); made in house; host or cells: E. coli
How it was run: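 E. coli-expressed N-terminal His-tagged TDO (15 nM) in pH 7 phosphate buffer with ascorbate and catalase, preincubated 30 min at RT with compound (10 μM to 0.5 nM, 0.6% DMSO). Reaction started with 200 μM L-tryptophan for 30 min at RT; NFK measured by LCMS against deuterated internal standard, IC50 by four-parameter fit, duplicates.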

IDO1 in SKOV3 cells = target: T2, IDO1 in SKOV3 cells (Homo sapiens, UniProt P14902); assay: Cell-based IDO inhibitory activity in IFNγ-stimulated SKOV3 cells (NFK + kynurenine by LCMS); conditions: IFNγ 50 ng/ml, 200 uM L-tryptophan, 24 hours
T2 construct: SKOV3 cells (NCI, No. 0503405) which upregulate IDO1 after stimulation with IFNγ; host or cells: SKOV3 cells stimulated with IFNγ
How it was run: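 SKOV3 cells (4000/well, pre-cultured 24 h) were treated with compound (10 uM-40 nM) plus 200 uM L-tryptophan and 50 ng/ml IFNγ for 24 h at 37° C. N-formylkynurenine plus kynurenine in supernatant was measured by LCMS against a d5-tryptophan internal standard. IC50 was fitted against 0.2% DMSO and reference-inhibitor controls, in duplicate, with repeat measurements averaged.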

[2] = target: T3, Recombinant full-length human IDO1 (Homo sapiens, UniProt P14902); assay: IDO1 enzymatic assay (NFK quantified by LCMS); format: biochemical; conditions: 2 nM enzyme, 5 μM L-tryptophan, 30 min pre-incubation, pH6.5; mean if measured multiple times; read-out: hIDO activity (IC50 in nM)
T3 construct: Recombinant full-length human IDO1 with a N-terminal hexahistidine tag; hexahistidine (N); made in house; host or cells: E. coli
How it was run: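 His-tagged full-length IDO1 (E. coli, 2 nM final) in pH 6.5 phosphate with ascorbate, methylene blue and catalase was preincubated 30 min at RT with compound (10 µM–0.5 nM, 0.6% DMSO), then run 30 min at RT with 5 µM L-Trp. NFK was measured by LCMS against a d5-Trp standard. IC50 came from a four-parameter fit of duplicates.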

T1 sequence (P48775 19-406 limits assumed): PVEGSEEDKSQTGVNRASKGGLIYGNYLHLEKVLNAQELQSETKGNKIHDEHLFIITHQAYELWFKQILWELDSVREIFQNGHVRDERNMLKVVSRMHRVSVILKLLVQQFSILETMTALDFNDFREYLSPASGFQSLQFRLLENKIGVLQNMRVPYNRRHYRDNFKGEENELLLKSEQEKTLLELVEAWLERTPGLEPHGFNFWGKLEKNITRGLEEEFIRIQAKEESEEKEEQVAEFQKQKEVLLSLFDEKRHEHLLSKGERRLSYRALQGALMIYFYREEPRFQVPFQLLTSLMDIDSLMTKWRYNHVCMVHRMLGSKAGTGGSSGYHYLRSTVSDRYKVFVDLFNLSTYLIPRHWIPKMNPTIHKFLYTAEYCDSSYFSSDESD
T3 sequence (P14902 whole entry): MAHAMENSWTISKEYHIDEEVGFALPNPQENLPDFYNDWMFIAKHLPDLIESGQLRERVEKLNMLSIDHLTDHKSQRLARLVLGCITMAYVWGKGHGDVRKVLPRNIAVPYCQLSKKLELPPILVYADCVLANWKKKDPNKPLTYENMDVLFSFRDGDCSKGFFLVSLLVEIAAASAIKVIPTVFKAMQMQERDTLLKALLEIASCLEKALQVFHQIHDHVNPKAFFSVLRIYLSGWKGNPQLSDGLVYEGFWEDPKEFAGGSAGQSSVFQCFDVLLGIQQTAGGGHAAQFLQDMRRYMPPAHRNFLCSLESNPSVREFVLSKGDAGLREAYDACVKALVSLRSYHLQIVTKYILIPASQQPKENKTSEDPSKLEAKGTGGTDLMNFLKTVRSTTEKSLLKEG
T2 sequence (P14902 whole entry): as above

IC50 [1] [nM] | IC50 (IDO1 in SKOV3 cells) [nM] | IC50 [2] [nM] | Compound
> 10200 | 470 | 41 | OC(c1cn(-c2ccccc2)nn1)c1c(C2CC2)ncc2cncn12 (racemic) [Example 3, rac-(6-Cyclopropyl-imidazo[1,5-a]pyrazin-5-yl)-(1-phenyl-1H-[1,2,3]triazol-4-yl)-methanol]
> 10200 | 11.8 | 9.14 | COC(=O)Nc1ccc(-n2cc(C(O)c3c(C4CC4)ccc4cncn34)nn2)cc1 (racemic) [Example 6, rac-(4-{4-[(6-Cyclopropyl-imidazo[1,5-a]pyridin-5-yl)-hydroxy-methyl]-[1,2,3]triazol-1-yl}-phenylycarbamic acid methyl ester]
> 10200 | 2940 | 433 | OC(c1ccn(-c2ccccc2)n1)c1c(Cl)ccc2cncn12 (racemic) [Ref2, rac-(6-Chloro-imidazo[1,5-a]pyridin-5-yl)-(1-phenyl-1H-pyrazol-3-yl)-methanol, reference compound]
2190 | 10.7 | 1.84 | COc1ccc(-n2nnc([C@H](O)c3c(Cl)ccc4cncn34)c2C)cc1 [Example 20a, (R)-(6-Chloro-imidazo[1,5-a]pyridin-5-yl)-[1-(4-methoxy-phenyl)-5-methyl-1H-[1,2,3]triazol-4-yl]-methanol]
> 10200 | 16.8 | 8.33 | O[C@@H](c1cn(-c2ccc(OCC3COC3)c(F)c2)nn1)c1c(C2CC2)ncc2cncn12 [Example 36, (R)-(6-Cyclopropyl-imidazo[1,5-a]pyrazin-5-yl)-{1-[3-fluoro-4-(oxetan-3-ylmethoxy)-phenyl]-1H-[1,2,3]triazol-4-yl}-methanol]
> 10200 | 8.8 | 7.41 | COc1ccc(-n2cc(C(O)c3c(C4CC4)ccc4cncn34)nn2)cc1Cl (racemic) [Example 8, rac-[1-(3-Chloro-4-methoxy-phenyl)-1H-[1,2,3]triazol-4-yl]-(6-cyclopropyl-imidazo[1,5-a]pyridin-5-yl)-methanol]
> 10200 | 73.9 | 21.5 | COC(=O)Nc1ccc(-n2cc(C(O)c3c(C4CC4)ncc4cncn34)nn2)cc1 (racemic) [Example 12, rac-(4-{4-[(6-Cyclopropyl-imidazo[1,5-a]pyrazin-5-yl)-hydroxy-methyl]-[1,2,3]triazol-1-yl}-phenyl)-carbamic acid methyl ester]
8920 | > 10000 | 161 | OC(c1cnn(-c2ccccc2)n1)c1c(Cl)ccc2cncn12 (racemic) [Ref3, rac-(6-Chloro-imidazo[1,5-a]pyridin-5-yl)-(2-phenyl-2H-[1,2,3]triazol-4-yl)-methanol, reference compound]
> 10200 | 70.2 | 14.3 | CCc1ncc2cncn2c1C(O)c1cn(-c2cc(F)c(OC)cc2F)nn1 (racemic) [Example 32, rac-[1-(2,5-Difluoro-4-methoxy-phenyl)-1H-[1,2,3]triazol-4-yl]-(6-ethyl-imidazo[1,5-a]pyrazin-5-yl)-methanol]
> 10200 | 326 | 27.2 | CCOc1ccc(-n2cc(C(O)c3c(C4CC4)ncc4cncn34)nn2)cn1 (racemic) [Example 13, rac-(6-Cyclopropyl-imidazo[1,5-a]pyrazin-5-yl)-[1-(6-ethoxy-pyridin-3-yl)-1H-[1,2,3]triazol-4-yl]-methanol]
> 10200 | 145 | 7.76 | CN1CCc2cc(-n3cc([C@H](O)c4c(C5CC5)ncc5cncn45)nn3)ccc21 [Example 47, (R)-(6-Cyclopropyl-imidazo[1,5-a]pyrazin-5-yl)-[1-(1-methyl-2,3-dihydro-1H-indol-5-yl)-1H-[1,2,3]triazol-4-yl]-methanol]
> 10200 | 20.2 | 6.36 | COc1cc(F)c(-n2cc([C@H](O)c3c(C4CC4)ncc4cncn34)nn2)cc1F [Example 22, (R)-(6-Cyclopropyl-imidazo[1,5-a]pyrazin-5-yl)-[1-(2,5-difluoro-4-methoxy-phenyl)-1H-[1,2,3]triazol-4-yl]-methanol]
> 10200 | 3.05 | 3.39 | CCc1ccc2cncn2c1C(O)c1cn(-c2cc(F)c(OC)cc2F)nn1 (racemic) [Example 35, rac-[1-(2,5-Difluoro-4-methoxy-phenyl)-1H-[1,2,3]triazol-4-yl]-(6-ethyl-imidazo[1,5-a]pyridin-5-yl)-methanol]
> 10200 | 56.8 | 15 | O[C@@H](c1cn(-c2ccc(N3CC4(COC4)C3)cc2)nn1)c1c(C2CC2)ncc2cncn12 [Example 45, (R)-(6-Cyclopropyl-imidazo[1,5-a]pyrazin-5-yl)-{1-[4-(2-oxa-6-aza-spiro[3.3]hept-6-yl)-phenyl]-1H-[1,2,3]triazol-4-yl}-methanol]
> 10200 | 14.5 | 2.97 | CCc1ccc2cncn2c1C(O)c1cn(-c2ccc(OC)cc2)nn1 (racemic) [Example 34, rac-(6-Ethyl-imidazo[1,5-a]pyridin-5-yl)-[1-(4-methoxy-phenyl)-1H-[1,2,3]triazol-4-yl]-methanol]
6640 | 39 | 5.28 | CCc1c(C(O)c2c(Cl)ccc3cncn23)nnn1-c1ccc(OC)cc1 (racemic) [Example 37, rac-(6-Chloro-imidazo[1,5-a]pyridin-5-yl)-[5-ethyl-1-(4-methoxy-phenyl)-1H-[1,2,3]triazol-4-yl]-methanol]
9110 | 193 | 5.07 | O[C@@H](c1cn(-c2ccccc2)nn1)c1c(Cl)ccc2cncn12 [Example 1a, (R)-(6-Chloro-imidazo[1,5-a]pyridin-5-yl)-(1-phenyl-1H-[1,2,3]triazol-4-yl)-methanol]
